Data published in article PMC11637191, “The pH-dependence of efflux ratios determined with bidirectional transport assays across cellular monolayers” (International Journal of Pharmaceutics: X, 2024).
Read-outs that look alike come from different tables or passages of the source. One block for each compound: values may come before it.

Experiments:
[1] = test system: MDCK-MDR1 cells; experiment: Comparison of Papp,B-A with and without inhibitor in MDCK-MDR1 cells (own and literature data); settings: calculated from literature Papp,B⟶A and Papp with inhibitor; pH 7.4 iso-method
[2] = test system: MDCK-MDR1 cells; settings: pH 7.4 iso-method, cited from earlier work; for Papp, B⟶A: without inhibitor; for Papp, inhibitor: with inhibitor
[3] = Calculation of neutral fraction (fn); settings: neutral fraction at pH 8
[4] = basic; no reference given; cited from earlier work

Compound: CC(C)(C)NCC(O)COc1ccc(NC(=O)NC2CCCCC2)cc1 (stereo not shown) [Talinolol]
fn [3]: 5%
pKa [4]: 9.4

Compound: CCOC(=O)CN[C@@H](C(=O)N1CC[C@H]1C(=O)NCc1ccc(/C(N)=N\O)cc1)C1CCCCC1 [Ximelagatran]
Factor difference [1]: 6
Papp, inhibitor ([2]; ref Eriksson et al. (2006)): 7 ×10⁻⁶ cm/s
Papp, B⟶A ([2]; ref Eriksson et al. (2006)): 39 ×10⁻⁶ cm/s

Compound: Cc1cn([C@H]2C[C@H](N=[N+]=[N-])[C@@H](CO)O2)c(=O)[nH]c1=O [Zidovudine]
Factor difference [1]: 3
Papp, inhibitor ([2]; ref De Souza et al. (2009)): 3.26 ×10⁻⁶ cm/s
Papp, B⟶A ([2]; ref De Souza et al. (2009)): 9.98 ×10⁻⁶ cm/s

The next lines start with results.

Factor difference [1]: 6
Compound: CC(C)c1nc(CN(C)C(=O)N[C@H](C(=O)N[C@@H](Cc2ccccc2)C[C@H](O)[C@H](Cc2ccccc2)NC(=O)OCc2cncs2)C(C)C)cs1 [Ritonavir]
Papp, B⟶A ([2]; ref Troutman and Thakker (2003)): 23.6 ×10⁻⁶ cm/s

Factor difference [1]: 5
Compound: CC(C)NCC(O)c1ccc(NS(C)(=O)=O)cc1 (stereo not shown) [Sotolol]
Papp, inhibitor ([2]; ref Liu et al. (2012)): 0.2 ×10⁻⁶ cm/s
Papp, B⟶A ([2]; ref Liu et al. (2012)): 1.05 ×10⁻⁶ cm/s
